Source: patent US8999980B2, “Oxazine derivatives” (Shionogi & Co., Ltd., priority 2009, dated 2015)

Molecular target: Recombinant human BACE1 (Homo sapiens (Human), UniProt P56817)
Assay: Assay of BACE1 inhibiting activity
Format: biochemical
Conditions: read-out: IC50 (50% inhibitory concentration against the enzymatic activity); Recombinant human BACE1 7.4 nmol/L, substrate peptide 18 nmol/L, pH 5.0, 30° C., 3 hours
Protocol: 48.5 μL of substrate peptide solution (Biotin-XSEVNLDAEFRHDSGC-Eu: X=ε-amino-n-capronic acid, Eu=Europium cryptate) was added to each well of 96-hole half-area plate (a black plate: Costar), and after addition of 0.5 μl of the test compound (dissolved in N,N′-dimethyl formaldehyde) and 1 μl of Recombinant human BACE1(R&D Systems), the reaction mixture was incubated at 30° C. for 3 hours. The substrate peptide was synthesized by reacting Cryptate TBPCOOH mono SMP (CIS bio international) with Biotin-XSEVNLDAEFRHDSGC (Peptide Institute, Inc.).
After the incubation for reaction, 50 μl of 8.0 μg/ml Streptavidin-XL665 (CIS bio international) dissolved in phosphate buffer (150 mmol/L K2HPO4—KH2PO4, pH 7.0, 0.008% Triton X-100, 0.8 mol/L KF) was added to each well and left stand at 30° C. for an hour.

Sequence of Recombinant human BACE1 (P56817 46-501): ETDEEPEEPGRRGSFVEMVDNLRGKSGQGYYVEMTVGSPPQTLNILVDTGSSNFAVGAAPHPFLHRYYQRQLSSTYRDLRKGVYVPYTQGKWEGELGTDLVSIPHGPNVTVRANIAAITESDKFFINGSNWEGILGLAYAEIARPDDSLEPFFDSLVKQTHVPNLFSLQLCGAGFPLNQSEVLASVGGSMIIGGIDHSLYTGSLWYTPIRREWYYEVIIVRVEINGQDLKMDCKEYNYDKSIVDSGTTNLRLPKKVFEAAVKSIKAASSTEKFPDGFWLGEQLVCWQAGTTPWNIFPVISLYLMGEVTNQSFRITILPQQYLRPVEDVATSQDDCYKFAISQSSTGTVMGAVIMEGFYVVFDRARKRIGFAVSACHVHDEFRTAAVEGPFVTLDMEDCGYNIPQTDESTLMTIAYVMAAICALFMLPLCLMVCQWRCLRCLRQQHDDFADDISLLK

Row | IC50 [µM] | Structure (SMILES)
1 | 0.027 | C=C1C[C@@](C)(c2cc(NC(=O)c3ccc(Cl)cn3)ccc2F)N=C(N)O1 [Compound I-2]
2 | ≤ 30 | C=C1C[C@@](C)(c2cc(NC(=O)c3ncc(Cl)cc3Cl)ccc2F)N=C(N)O1 [Compound I-4]
3 | ≤ 30 | C=C1C[C@@](C)(c2cc(NC(=O)c3cnc(OC)cn3)ccc2F)N=C(N)O1 [Compound I-3]
4 | ≤ 30 | C=C1C[C@@](C)(c2cc(NC(=O)c3ncc(F)cc3F)ccc2F)N=C(N)O1 [Compound I-5]
